Laboratory results: US8563559B2 (Rigel Pharmaceuticals, Inc., priority 2006, dated 2013)
pIC50: −log10 of the molar value.

target: T1, Axl (Homo sapiens, UniProt P30530); experiment: Phospho-AKT in-cell Western assay (inhibition of Axl activity); assay type: cell-based; details: Table 1, formula (Ia); Hela cells, Axl antibody cross-linking stimulation, phospho-Akt chemiluminescence normalized to relative cell number
T1 construct: endogenous in cells; host or cells: HeLa
T1 sequence (P30530 26-894): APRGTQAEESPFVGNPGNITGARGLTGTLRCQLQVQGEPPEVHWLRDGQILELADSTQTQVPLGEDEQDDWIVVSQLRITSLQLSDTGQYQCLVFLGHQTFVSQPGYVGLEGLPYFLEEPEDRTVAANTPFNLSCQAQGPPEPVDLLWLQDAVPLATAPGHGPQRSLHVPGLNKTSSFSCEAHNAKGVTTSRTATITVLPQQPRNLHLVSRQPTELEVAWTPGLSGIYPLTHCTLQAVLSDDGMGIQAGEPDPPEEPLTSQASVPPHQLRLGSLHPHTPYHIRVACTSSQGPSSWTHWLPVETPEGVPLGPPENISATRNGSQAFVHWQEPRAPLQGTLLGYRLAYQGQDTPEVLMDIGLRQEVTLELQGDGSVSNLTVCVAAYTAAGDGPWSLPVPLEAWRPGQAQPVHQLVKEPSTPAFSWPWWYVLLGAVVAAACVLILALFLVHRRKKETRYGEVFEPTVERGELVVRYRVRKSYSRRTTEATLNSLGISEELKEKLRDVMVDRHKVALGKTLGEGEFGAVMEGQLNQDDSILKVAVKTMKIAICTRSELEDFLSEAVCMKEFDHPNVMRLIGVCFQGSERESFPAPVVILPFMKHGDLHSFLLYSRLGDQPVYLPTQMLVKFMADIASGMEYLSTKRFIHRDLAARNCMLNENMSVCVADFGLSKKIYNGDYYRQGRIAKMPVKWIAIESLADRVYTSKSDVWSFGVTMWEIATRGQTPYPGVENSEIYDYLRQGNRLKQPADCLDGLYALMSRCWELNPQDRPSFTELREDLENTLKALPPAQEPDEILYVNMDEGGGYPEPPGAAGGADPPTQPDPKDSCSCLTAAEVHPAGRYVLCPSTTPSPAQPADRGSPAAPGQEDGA
Method in brief: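 HeLa cells were starved 24 h in 0.5% FCS with Axl/Fc 500 ng/mL, pre-treated with compound for 1 h at 37 °C, then stimulated 5 min by anti-Axl antibody cross-linking. Fixed cells were probed for phospho-AKT with an HRP-linked in-cell Western and read by chemiluminescence.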

| pIC50 | Compound |
| --- | --- |
| < 4.70 | CNC(=O)[C@H]1C[C@H]2C[C@H](C2(C)C)[C@@]1(C)Nc1nc(Nc2ccc(N3CCC(F)(F)CC3)c(Cl)c2)ncc1F [Compound 34, (1R,2R,3S,5R)-2-(5-fluoro-2-(3-chloro-4-(4,4-difluoropipendin-1-yl)phenylamino)pyrimidin-4-ylamino)-N,2,6,6-tetramethylbicyclo[3.1.1]heptane-3-carboxamide] |
| 5.00 to 6.00 | CNC(=O)[C@H]1C[C@H]2C[C@H](C2(C)C)[C@@]1(C)Nc1nc(Nc2ccc(N3CCN(C(C)=O)CC3)cc2)ncc1Cl [Compound 13, (1R,2R,3S,5R)-2-(2-(4-(4-acetylpiperazin-1-yl)phenylamino)-5-chloropyrimidin-4-ylamino)-N,2,6,6-tetramethylbicyclo[3.1.1]heptane-3-carboxamide] |
| > 6.00 | CC(C)NC(=O)[C@H]1C[C@H]2C[C@H](C2(C)C)[C@@]1(C)Nc1nc(Nc2ccc(OCCN3CCCC3)cc2)ncc1Cl [Compound 63, (1R,2R,3S,5R)-2-(5-chloro-2-(4-(2-(pyrrolidin-1-yl)ethoxy)phenylamino)pyrimidin-4-ylamino)-N-(1-methylethyl)-2,6,6-trimethylbicyclo[3.1.1]heptane-3-carboxamide] |
| > 6.00 | CNC(=O)[C@H]1C[C@H]2C[C@H](C2(C)C)[C@@]1(C)Nc1nc(Nc2ccc(OCC(C)(C)N3CCCC3)cc2)ncc1Cl [Compound 8, (1R,2R,3S,5R)-2-(5-chloro-2-(4-(2-methyl-2-(pyrrolidin-1-yl)propoxy)phenylamino)pyrimidin-4-ylamino)-N,2,6,6-tetramethylbicyclo[3.1.1]heptane-3-carboxamide] |
| 5.00 to 6.00 | CNC(=O)[C@H]1C[C@H]2C[C@H](C2(C)C)[C@@]1(C)Nc1nc(Nc2ccc(OCCN3CCCC3)cc2)ncc1F [Compound 40, (1R,2R,3S,5R)-2-(5-fluoro-2-(4-(2-(pyrrolidin-1-yl)ethoxy)phenylamino)pyrimidin-4-ylamino)-N,2,6,6-tetramethylbicyclo[3.1.1]heptane-3-carboxamide] |
| 5.00 to 6.00 | CNC(=O)[C@H]1C[C@H]2C[C@H](C2(C)C)[C@@]1(C)Nc1nc(Nc2ccc(N3CCN(C(C)=O)CC3)c(Cl)c2)ncc1F [Compound 38, (1R,2R,3S,5R)-2-(5-fluoro-2-(3-chloro-4-(4-acetylpiperazin-1-yl)phenylamino)pyrimidin-4-ylamino)-N,2,6,6-tetramethylbicyclo[3.1.1]heptane-3-carboxamide] |
| < 4.70 | CNC(=O)[C@H]1C[C@H]2C[C@H](C2(C)C)[C@@]1(C)Nc1nc(Nc2ccc(N3CCN(C(C)=O)CC3)c(C(F)(F)F)c2)ncc1F [Compound 39, (1R,2R,3S,5R)-2-(5-fluoro-2-(3-trifluoromethyl-4-(4-acetylpiperazin-1-yl)phenylamino)pyrimidin-4-ylamino)-N,2,6,6-tetramethylbicyclo[3.1.1]heptane-3-carboxamide] |
| > 6.00 | CNC(=O)[C@H]1C[C@H]2C[C@H](C2(C)C)[C@@]1(C)Nc1nc(Nc2ccc(C3CCN(C)CC3)cc2)ncc1Cl [Compound 12, (1R,2R,3S,5R)-2-(5-chloro-2-(4-(1-methylpiperidin-4-yl)phenylamino)pyrimidin-4-ylamino)-N,2,6,6-tetramethylbicyclo[3.1.1]heptane-3-carboxamide] |
| > 6.00 | CNC(=O)[C@H]1C[C@H]2C[C@H](C2(C)C)[C@@]1(C)Nc1nc(Nc2ccc(N3CCN(C)CC3)c(F)c2)ncc1C [Compound 43, (1R,2R,3S,5R)-2-(5-methyl-2-(3-fluoro-4-(4-methylpiperazin-1-yl)phenylamino)pyrimidin-4-ylamino)-N,2,6,6-tetramethylbicyclo[3.1.1]heptane-3-carboxamide] |

same assay, conditions: Table 2, formula (Ib); Hela cells, Axl antibody cross-linking stimulation, phospho-Akt chemiluminescence normalized to relative cell number

| pIC50 | Compound |
| --- | --- |
| 5.00 to 6.00 | CNC(=O)[C@@H]1C[C@@H]2C[C@@H](C2(C)C)[C@]1(C)Nc1nc(Nc2ccc(N3CCOCC3)cc2)ncc1Cl [Compound 21, (1S,2S,3R,5S)-2-(5-chloro-2-(4-morpholinophenylamino)pyrimidin-4-ylamino)-N,2,6,6-tetramethylbicyclo[3.1.1]heptane-3-carboxamide] |
| 5.00 to 6.00 | CNC(=O)[C@@H]1C[C@@H]2C[C@@H](C2(C)C)[C@]1(C)Nc1nc(Nc2ccc(OCCN3CCCC3)c(F)c2)ncc1Cl [Compound 23, (1S,2S,3R,5S)-2-(5-chloro-2-(3-fluoro-4-(2-(pyrrolidin-1-yl)ethoxy)phenylamino)pyrimidin-4-ylamino)-N,2,6,6-tetramethylbicyclo[3.1.1]heptane-3-carboxamide] |

same assay, conditions: Table 3, formula (Ic); Hela cells, Axl antibody cross-linking stimulation, phospho-Akt chemiluminescence normalized to relative cell number

| pIC50 | Compound |
| --- | --- |
| > 6.00 | CNC(=O)[C@H]1C[C@H]2C[C@H](C2(C)C)[C@@]1(C)Nc1nc(Nc2ccc3c(c2)OCCN3CCN2CCOCC2)ncc1Cl [Compound 58, (1R,2R,3S,5R)-2-(5-chloro-2-((3,4-dihydro-4-(2-(morpholin-4-yl)ethyl)-2H-benzo[b][1,4]oxazin-7-yl)amino)pyrimidin-4-ylamino)-N,2,6,6-tetramethylbicyclo[3.1.1]heptane-3-carboxamide] |
| > 6.00 | CNC(=O)[C@H]1C[C@H]2C[C@H](C2(C)C)[C@@]1(C)Nc1nc(Nc2ccc3c(c2)OCCN3CCN2CCCCC2)ncc1Cl [Compound 56, (1R,2R,3S,5R)-2-(5-chloro-2-((3,4-dihydro-4-(2-(piperidin-1-yl)ethyl)-2H-benzo[b][1,4]oxazin-7-yl)amino)pyrimidin-4-ylamino)-N,2,6,6-tetramethylbicyclo[3.1.1]heptane-3-carboxamide] |
| > 6.00 | CCN(CC)CCN1CCOc2cc(Nc3ncc(C(F)(F)F)c(N[C@@]4(C)[C@@H](C(=O)NC)C[C@H]5C[C@@H]4C5(C)C)n3)ccc21 [Compound 53, (1R,2R,3S,5R)-2-(5-trifluoromethyl-2-((3,4-dihydro-4-(2-(diethylamino)ethyl)-2H-benzo[b][1,4]oxazin-7-yl)-amino)pyrimidin-4-ylamino)-N,2,6,6-tetramethylbicyclo[3.1.1]heptane-3-carboxamide] |
| > 6.00 | CCN(CC)CCN1CCOc2cc(Nc3ncc(Cl)c(N[C@@]4(C)[C@@H](C(=O)NC)C[C@H]5C[C@@H]4C5(C)C)n3)ccc21 [Compound 45, (1R,2R,3S,5R)-2-(5-chloro-2-((3,4-dihydro-4-(2-(diethylamino)ethyl)-2H-benzo[b][1,4]oxazin-7-yl)amino)pyrimidin-4-ylamino)-N,2,6,6-tetramethylbicyclo[3.1.1]heptane-3-carboxamide] |
| 5.00 to 6.00 | CNC(=O)[C@H]1C[C@H]2C[C@H](C2(C)C)[C@@]1(C)Nc1nc(Nc2ccc3c(c2)N(CCN(C)C)CCO3)ncc1F [Compound 51, (1R,2R,3S,5R)-2-(5-fluoro-2-((3,4-dihydro-4-(2-(dimethylamino)ethyl)-2H-benzo[b][1,4]oxazin-6-yl)amino)pyrimidin-4-ylamino)-N,2,6,6-tetramethylbicyclo[3.1.1]heptane-3-carboxamide] |
